Strand notation (5' to 3'): a small letter for the sugar, then the base; units joined by * are phosphorothioate-linked, units joined directly phosphodiester-linked; [ ] holds rarer units or linkages, { } end groups; capitals alone tell only the bases. k = constrained ethyl (cEt); [5mC] = 5-methylcytosine; d = 2'-deoxy (DNA)

For one data set, the system named is human SMAD7 mRNA. In words: Antisense inhibition of human SMAD7 mRNA expression in Hep3B cells by 3-10-3 cEt gapmers, 10,000 nM, electroporation (Example 2). Format: cell-based. Conditions: Hep3B cells, electroporation with 10,000 nM antisense oligonucleotide, approximately 24 hours, SMAD7 mRNA by RT-PCR (RTS5062), relative to untreated control cells. The gist of the method: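 qRT-PCR (RTS5062) of SMAD7 mRNA, normalised to RIBOGREEN total RNA, gave percent inhibition relative to untreated controls. Hep3B cells at 20,000 per well received 10,000 nM oligonucleotide by electroporation, with ~24 h treatment.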
Take “799407 (antisense kT*kG*k[5mC]*dA*dG*dG*dA*dA*dA*d[5mC]*d[5mC]*d[5mC]*dA*kA*kG*kG) [compound 799407]”: the “% Inhibition” value is given as 33%. As to “799408 (antisense kT*kT*kA*dA*dA*dT*d[5mC]*d[5mC]*dT*dG*dA*dG*dA*kA*k[5mC]*kA) [compound 799408]”, the “% Inhibition” value was determined as 27%. Same read-out and setting: the same measure for “799409 (antisense k[5mC]*kT*kA*d[5mC]*d[5mC]*dT*dA*dA*dT*dG*dT*d[5mC]*dA*kA*k[5mC]*kA) [compound 799409]”: 34%; for “799411 (antisense kT*kG*kG*dA*dG*dA*dA*d[5mC]*dT*dT*dT*dT*d[5mC]*kT*k[5mC]*k[5mC]) [compound 799411]”: 0%; for “799413 (antisense kA*kT*kT*dA*d[5mC]*dT*dG*dA*dT*dG*d[5mC]*dT*dA*kA*kA*kT) [compound 799413]”: 34%. Regarding “799414 (antisense k[5mC]*kA*kA*dA*dA*d[5mC]*d[5mC]*dA*dG*d[5mC]*d[5mC]*d[5mC]*d[5mC]*kA*kG*kA) [compound 799414]”, the “% Inhibition” value was 34%.

With “799415 (antisense kG*k[5mC]*k[5mC]*dA*d[5mC]*dA*dG*d[5mC]*dA*dG*d[5mC]*dT*dG*kG*k[5mC]*kA) [compound 799415]”, the “% Inhibition” value came out at 0%.

“799426 (antisense kG*k[5mC]*kT*dT*dA*dA*dA*dT*dT*dA*dT*dA*dG*k[5mC]*kA*kA) [compound 799426]”: the “% Inhibition” value was 7%.

As to “799427 (antisense kG*kT*k[5mC]*d[5mC]*dA*dG*dG*d[5mC]*d[5mC]*dT*d[5mC]*d[5mC]*d[5mC]*kA*kG*kA) [compound 799427]”, the “% Inhibition” value was 20%. In the case of “799428 (antisense kG*kA*k[5mC]*d[5mC]*dA*d[5mC]*dA*d[5mC]*dA*dG*dT*dA*d[5mC]*k[5mC]*kT*kA) [compound 799428]”, the “% Inhibition” value turned out to be 47%. Regarding “799430 (antisense kA*kG*k[5mC]*d[5mC]*dA*d[5mC]*dA*dA*dG*dT*d[5mC]*dA*d[5mC]*kA*kA*k[5mC]) [compound 799430]”, the “% Inhibition” value was found to be 29%. As to “799431 (antisense kG*kA*k[5mC]*dA*dG*d[5mC]*d[5mC]*dA*d[5mC]*dA*dA*dG*dT*k[5mC]*kA*k[5mC]) [compound 799431]”, the “% Inhibition” value stood at 39%. On the same count and under the same terms, next, “799432 (antisense kT*kG*kA*d[5mC]*dA*dG*d[5mC]*d[5mC]*dA*d[5mC]*dA*dA*dG*kT*k[5mC]*kA) [compound 799432]”: 7%; “799433 (antisense kT*kT*k[5mC]*dT*dT*dG*dT*dG*dG*dG*dA*dT*dG*kT*kG*kG) [compound 799433]”: 56%; “799434 (antisense kT*kG*kA*dA*dA*d[5mC]*dA*d[5mC]*dG*dG*dG*dA*dA*kG*k[5mC]*kA) [compound 799434]”: 37%. With “799435 (antisense kT*k[5mC]*k[5mC]*dT*d[5mC]*dA*dA*dA*d[5mC]*d[5mC]*dT*dT*dT*k[5mC]*kA*kG) [compound 799435]”, the “% Inhibition” value was determined as 60%. With “799446 (antisense kG*kA*k[5mC]*d[5mC]*dT*dA*dA*dT*d[5mC]*dT*d[5mC]*dT*dT*kT*k[5mC]*kA) [compound 799446]”, the “% Inhibition” value is recorded as 48%. As for “799447 (antisense kA*kT*kG*dA*dA*dT*dG*dA*d[5mC]*d[5mC]*dT*dA*dA*kT*k[5mC]*kT) [compound 799447]”, the “% Inhibition” value is listed as 30%. Turning to “799448 (antisense kG*kT*kA*dA*dA*dA*dT*dG*dA*dA*dT*dG*dA*k[5mC]*kT*kG) [compound 799448]”, the “% Inhibition” value is 41%. As to “799449 (antisense k[5mC]*kA*kG*d[5mC]*dA*d[5mC]*dT*dG*d[5mC]*dA*dT*d[5mC]*dG*kG*kA*kA) [compound 799449]”, the “% Inhibition” value was 37%. In the case of “799450 (antisense kA*kA*kG*dA*dA*d[5mC]*dA*d[5mC]*dA*dG*d[5mC]*dA*d[5mC]*kT*kG*k[5mC]) [compound 799450]”, the “% Inhibition” value is given as 53%.

With “799451 (antisense kA*kA*kA*dG*dA*dA*d[5mC]*dA*d[5mC]*dA*dG*d[5mC]*dA*k[5mC]*kT*kG) [compound 799451]”, the “% Inhibition” value is reported as 41%. Take “799452 (antisense kA*kA*kA*dA*dG*dA*dA*d[5mC]*dA*d[5mC]*dA*dG*d[5mC]*kA*k[5mC]*kT) [compound 799452]”: the “% Inhibition” value stood at 44%. The same measure, in the same setting: the same measure for “799453 (antisense kA*k[5mC]*kA*d[5mC]*dA*dG*d[5mC]*dA*d[5mC]*dT*dG*d[5mC]*d[5mC]*kA*kG*kG) [compound 799453]”: 58%; for “799454 (antisense kT*kT*kA*dA*dA*dG*dA*d[5mC]*dA*dG*dA*dG*dG*kA*kG*k[5mC]) [compound 799454]”: 55%; for “799455 (antisense kT*kG*kT*dT*dA*dA*dA*dG*dA*d[5mC]*dA*dG*dA*kG*kG*kA) [compound 799455]”: 55%.

The data set is the same for the next values; noted with them: Hep3B cells, electroporation with 10,000 nM antisense oligonucleotide, approximately 24 hours, primer probe set RTS5062, relative to untreated control cells.
In the case of “799403 (antisense kG*k[5mC]*kT*dA*dA*dG*dG*dT*d[5mC]*dA*d[5mC]*dT*dG*kT*kT*k[5mC]) [compound 799403]”, the “% inhibition of SMAD7 mRNA expression” value stood at 0%. With “799405 (antisense k[5mC]*kT*kG*dG*dG*dA*dA*d[5mC]*dA*dT*dT*dT*dA*k[5mC]*k[5mC]*k[5mC]) [compound 799405]”, the “% inhibition of SMAD7 mRNA expression” value stood at 28%. Take “799416 (antisense kA*kA*kG*dA*d[5mC]*d[5mC]*dT*dG*dG*dG*dT*d[5mC]*dA*kG*k[5mC]*kG) [compound 799416]”: the “% inhibition of SMAD7 mRNA expression” value was found to be 41%. Take “799417 (antisense kG*kG*k[5mC]*d[5mC]*dA*dA*dA*d[5mC]*dA*dT*dT*d[5mC]*dT*k[5mC]*k[5mC]*k[5mC]) [compound 799417]”: the “% inhibition of SMAD7 mRNA expression” value was determined as 26%. Still for that read-out and setting: the same measure for “799418 (antisense kG*kT*kA*dA*dA*dT*dG*dG*dT*d[5mC]*d[5mC]*dA*dT*kG*kT*kA) [compound 799418]”: 12%; for “799419 (antisense kA*kA*kA*dA*dA*dT*dT*d[5mC]*dA*dA*d[5mC]*d[5mC]*dT*kA*kA*kG) [compound 799419]”: 0%; for “799420 (antisense k[5mC]*kA*kA*dG*dA*d[5mC]*d[5mC]*dA*dA*dA*dA*dA*dT*kT*k[5mC]*kA) [compound 799420]”: 32%. Still for that read-out and setting: the same measure for “799421 (antisense kA*kA*k[5mC]*d[5mC]*d[5mC]*dA*dA*dG*dA*d[5mC]*d[5mC]*dA*dA*kA*kA*kA) [compound 799421]”: 63%. Same read-out and setting: the same measure for “799422 (antisense kG*kA*kT*dT*dT*dT*dA*dA*d[5mC]*dA*dG*dT*dT*kG*kT*k[5mC]) [compound 799422]”: 33%; for “799423 (antisense kT*kA*k[5mC]*d[5mC]*dA*dG*dG*d[5mC]*d[5mC]*d[5mC]*d[5mC]*dA*dG*k[5mC]*k[5mC]*k[5mC]) [compound 799423]”: 14%; for “799424 (antisense k[5mC]*kT*k[5mC]*d[5mC]*dA*dA*dA*dG*dG*d[5mC]*dT*dG*d[5mC]*kA*kG*kG) [compound 799424]”: 34%. With “799425 (antisense kA*kT*kT*dA*dT*dA*dG*d[5mC]*dA*dA*dA*dA*dT*kG*kG*kA) [compound 799425]”, the “% inhibition of SMAD7 mRNA expression” value was found to be 23%. On the same count and under the same terms, the same measure for “799436 (antisense kA*kG*k[5mC]*d[5mC]*dA*dT*dT*d[5mC]*d[5mC]*dT*d[5mC]*dA*dA*kA*k[5mC]*k[5mC]) [compound 799436]”: 4%; for “799437 (antisense k[5mC]*k[5mC]*kA*dG*dA*dT*d[5mC]*dT*d[5mC]*dA*dG*dG*dT*k[5mC]*kA*kA) [compound 799437]”: 26%. Consider “799438 (antisense kA*kA*kG*dA*dG*dA*dG*dA*dA*dA*d[5mC]*dG*d[5mC]*kA*kG*kT) [compound 799438]”, for which the “% inhibition of SMAD7 mRNA expression” value was found to be 32%.

As for “799439 (antisense kA*kA*kG*dA*dG*dG*dG*dA*d[5mC]*d[5mC]*dT*d[5mC]*dG*kG*kT*kT) [compound 799439]”, the “% inhibition of SMAD7 mRNA expression” value is recorded as 0%. “799440 (antisense kT*kA*kG*dA*dA*dA*dA*dG*dT*dT*dA*dA*dG*kA*kG*kG) [compound 799440]”: the “% inhibition of SMAD7 mRNA expression” value is recorded as 41%.

For the substance “799441 (antisense k[5mC]*kT*kA*dG*dA*dA*dA*dA*dG*dT*dT*dA*dA*kG*kA*kG) [compound 799441]”, the “% inhibition of SMAD7 mRNA expression” value is on record as 22%. “799442 (antisense kG*kA*kT*dT*dT*dT*dA*dA*dA*dA*dG*dA*dG*kG*k[5mC]*k[5mC]) [compound 799442]”: the “% inhibition of SMAD7 mRNA expression” value is given as 0%. As for “799443 (antisense kT*k[5mC]*kA*dT*dG*d[5mC]*dT*dG*dA*dT*dT*dT*dT*kA*kA*kA) [compound 799443]”, the “% inhibition of SMAD7 mRNA expression” value is listed as 24%. On the same count and under the same terms, next, “799444 (antisense k[5mC]*kA*kT*d[5mC]*dA*dT*dG*d[5mC]*dT*dG*dA*dT*dT*kT*kT*kA) [compound 799444]”: 45%; “799445 (antisense k[5mC]*k[5mC]*kT*dA*dA*dT*d[5mC]*dT*d[5mC]*dT*dT*dT*d[5mC]*kA*kT*k[5mC]) [compound 799445]”: 28%. For the substance “799456 (antisense kT*k[5mC]*k[5mC]*dT*dA*dA*dG*dT*dA*d[5mC]*dT*dG*dT*kT*kA*kA) [compound 799456]”, the “% inhibition of SMAD7 mRNA expression” value is recorded as 0%.

Broadly, the % Inhibition is the drop in the measured response relative to a control, in per cent. Higher therefore signals strong suppression.

The record behind these values is patent US10517889B2, “Modulators of SMAD7 expression” (Ionis Pharmaceuticals, Inc., priority 2017, dated 2019).
